For the series the following is noted: Crystal; visual observation.

Each structure is given as a SMILES string. ± gives the expanded uncertainty stated by the source.

Consider `[Cl-].c1ccc([P+](c2ccccc2)(c2ccccc2)c2ccccc2)cc1` [tetraphenylphosphonium chloride], for which the Normal melting temperature stood at 276.50 ± 0.9 °C.
